Test results from patent publication US20240132492A1, “PYRIDOPYRIMIDINE-BASED COMPOUND AND APPLICATION THEREOF” (JINAN UNIVERSITY, priority 2021, published 2024).

How the values were obtained:
Format in all cases: cell-based
[1] = molecular target: T1, AKT1 (Homo sapiens, UniProt P31749); experiment: Western Blot, degradation of AKT1 protein in H1975-OR cells; conditions: 1000 nM, 24 hours, maximum degradation rate
T1 construct: AKT1, AKT2, and AKT3 proteins in H1975-OR cells; endogenous in cells; host or cells: H1975-OR (osimertinib-resistant H1975)
T1 sequence (P31749 whole entry): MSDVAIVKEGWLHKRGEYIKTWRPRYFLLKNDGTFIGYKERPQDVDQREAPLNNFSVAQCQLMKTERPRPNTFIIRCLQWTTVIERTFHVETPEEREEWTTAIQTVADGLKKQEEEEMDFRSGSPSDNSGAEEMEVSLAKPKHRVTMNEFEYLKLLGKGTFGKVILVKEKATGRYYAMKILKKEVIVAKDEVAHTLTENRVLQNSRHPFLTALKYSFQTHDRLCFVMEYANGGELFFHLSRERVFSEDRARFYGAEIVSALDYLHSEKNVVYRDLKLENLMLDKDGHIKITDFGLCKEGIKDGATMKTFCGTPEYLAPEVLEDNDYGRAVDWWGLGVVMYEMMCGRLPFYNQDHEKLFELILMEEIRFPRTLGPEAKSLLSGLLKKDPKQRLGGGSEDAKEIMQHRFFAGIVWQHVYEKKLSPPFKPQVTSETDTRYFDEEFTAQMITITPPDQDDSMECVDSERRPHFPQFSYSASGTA
Summary of the method: (§1)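 H1975-OR cells are Osimertinib-resistant H1975, adapted stepwise from 50 nM to 3 μM Osimertinib. Cells were treated with compound for 24 h, lysed, and immunoblotted with ECL detection. Band grayscale density was quantified.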

[2] = molecular target: T2, AKT2 (Homo sapiens, UniProt P31751); experiment: Western Blot, degradation of AKT2 protein in H1975-OR cells; conditions: 1000 nM, 24 hours, maximum degradation rate
T2 construct: AKT1, AKT2, and AKT3 proteins in H1975-OR cells; endogenous in cells; host or cells: H1975-OR (osimertinib-resistant H1975)
T2 sequence (P31751 whole entry): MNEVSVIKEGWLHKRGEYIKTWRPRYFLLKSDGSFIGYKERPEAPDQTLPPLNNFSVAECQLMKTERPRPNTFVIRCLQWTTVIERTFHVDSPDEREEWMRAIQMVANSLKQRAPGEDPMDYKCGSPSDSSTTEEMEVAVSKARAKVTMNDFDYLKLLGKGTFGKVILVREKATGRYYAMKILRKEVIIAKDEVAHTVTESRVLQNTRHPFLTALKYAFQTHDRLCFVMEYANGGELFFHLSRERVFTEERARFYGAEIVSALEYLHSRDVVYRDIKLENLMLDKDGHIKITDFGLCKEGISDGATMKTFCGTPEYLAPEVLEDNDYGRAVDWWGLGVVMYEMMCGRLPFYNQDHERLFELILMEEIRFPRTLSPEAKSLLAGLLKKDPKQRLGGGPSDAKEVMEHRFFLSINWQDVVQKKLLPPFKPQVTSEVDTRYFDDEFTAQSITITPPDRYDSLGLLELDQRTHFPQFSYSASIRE
Summary of the method: as §1

[3] = system: AKT1/2; experiment: Immunoblotting, AKT1/2 protein levels in other tumor cells (H1975, PC-9, H1299, A549); conditions: H1975, PC-9, H1299 and A549 cells, different concentrations, 24 hours
Description: (§2) Conventional Western Blot (immunoblotting) was used for detection, as follows: a certain number of H1975-OR cells were planted on a 96 well plate, adherent cultured in an incubator overnight, and added a certain concentration of compound to act for 24 hours. 1×SDS lysis buffer with protease and phosphatase inhibitors was used to lyse cells. Cell lysates were separated by SDS-PAGE and transferred to PVDF membrane. Then, at room temperature, the PCDF membrane was taken out and immersed in a sealing solution (5% BSA TBS solution containing 0.5% Tween-20) for sealing treatment for 1 hour, and then incubated with a specific primary antibody at 4° C. overnight. The imprints were washed with TBST and incubated with horseradish peroxidase (HRP) labeled secondary antibodies at room temperature for 2 hours. Finally, ECL plus fluorescence detection reagent (Thermo Scientific, Waltham, MA) was used for protein development, and the Amersham Imager 600 system (GE, America) was used for photography. The detection results were processed using ImageJ software to obtain the grayscale value G (Density).
(§3) Tumor cells ([…], and A549) was incubated with different concentrations of compound ZX-HYT-11 for 24 hours, and then analyzed the protein levels of AKT1/2/3 using immunoblotting method as described in Embodiment 105.

[4] = system: H1975; experiment: CCK-8 tumor cell proliferation, H1975; conditions: Homo sapiens, NCI-H1975, H1975 cells, 72 hours
Summary of the method: (§4)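 Steps: plate 2000-3000 cells/well in complete medium; incubate overnight; add compound, 0.000508 μM-10 μM, 72 h; assess proliferation with CCK-8; fit curves for IC50, expressed as mean±SD.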

[5] = system: H1975OR; experiment: CCK-8 tumor cell proliferation, H1975OR; conditions: H1975OR cells (Osimertinib resistant), 72 hours
Summary of the method: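 Osimertinib-resistant H1975 cells, selected by raising Osimertinib stepwise from 50 nM to 3 μM, were treated for 72 h with compound at 0.000508–10 μM. Proliferation was read by CCK-8, and IC50 came from fitting the concentration–response curve, given as mean ± SD.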

[6] = system: PC-9; experiment: CCK-8 tumor cell proliferation, PC-9; conditions: Homo sapiens, PC-9 cells, 72 hours
Summary of the method: as §4

[7] = system: A431; experiment: CCK-8 tumor cell proliferation, A431; conditions: Homo sapiens, A-431, A431 cells, 72 hours
Summary of the method: as §4

[8] = system: HCC827; experiment: CCK-8 tumor cell proliferation, HCC827; conditions: Homo sapiens, HCC827 cells, 72 hours
Summary of the method: as §4

[9] = system: H1299; experiment: CCK-8 tumor cell proliferation, H1299; conditions: Homo sapiens, NCI-H1299, H1299 cells, 72 hours
Summary of the method: as §4

[10] = system: MDA-MB-231; experiment: CCK-8 tumor cell proliferation, MDA-MB-231; conditions: Homo sapiens, MDA-MB-231 cells, 72 hours
Description: (§5) Tumor cells (see Table 2 to Table 5) were inoculated in 96-well plates in complete culture medium (2000-3000 cells/well). After overnight incubation, the compounds with different concentrations (0.000508 μM-10 μM) were used to treat the cells separately for 72 hours. CCK-8 (Cell Counting Kit 8, Dojindo Laboratories, Kumamoto, Japan) experiment was used to evaluate cell proliferation. GraphPad Prism 5.0 software (La Jolla, CA) was used to calculate the half-maximal inhibitory concentration (IC50) values by fitting the concentration response curve. Each IC50 value was represented as an average value±SD.

[11] = system: MDA-MB-453; experiment: CCK-8 tumor cell proliferation, MDA-MB-453; conditions: Homo sapiens, MDA-MB-453 cells, 72 hours
Description: as §5

[12] = system: BT-549; experiment: CCK-8 tumor cell proliferation, BT-549; conditions: Homo sapiens, BT-549 cells, 72 hours
Description: as §5

[13] = system: Bel-7402; experiment: CCK-8 tumor cell proliferation, Bel-7402; conditions: Homo sapiens, Bel-7402 cells, 72 hours
Description: as §5

[14] = system: Huh7; experiment: CCK-8 tumor cell proliferation, Huh7; conditions: Homo sapiens, Huh-7, Huh7 cells, 72 hours
Description: as §5

[15] = system: HCC1937; experiment: CCK-8 tumor cell proliferation, HCC1937; conditions: Homo sapiens, HCC1937 cells, 72 hours
Description: as §5

[16] = molecular target: T3, AKT3 (Homo sapiens, UniProt Q9Y243); experiment: Western Blot, degradation of AKT3 protein in H1975-OR cells; set-up: endogenous in cells; host or cells: H1975-OR (osimertinib-resistant H1975); conditions: 1000 nM, 24 hours, maximum degradation rate
T3 sequence (Q9Y243 whole entry): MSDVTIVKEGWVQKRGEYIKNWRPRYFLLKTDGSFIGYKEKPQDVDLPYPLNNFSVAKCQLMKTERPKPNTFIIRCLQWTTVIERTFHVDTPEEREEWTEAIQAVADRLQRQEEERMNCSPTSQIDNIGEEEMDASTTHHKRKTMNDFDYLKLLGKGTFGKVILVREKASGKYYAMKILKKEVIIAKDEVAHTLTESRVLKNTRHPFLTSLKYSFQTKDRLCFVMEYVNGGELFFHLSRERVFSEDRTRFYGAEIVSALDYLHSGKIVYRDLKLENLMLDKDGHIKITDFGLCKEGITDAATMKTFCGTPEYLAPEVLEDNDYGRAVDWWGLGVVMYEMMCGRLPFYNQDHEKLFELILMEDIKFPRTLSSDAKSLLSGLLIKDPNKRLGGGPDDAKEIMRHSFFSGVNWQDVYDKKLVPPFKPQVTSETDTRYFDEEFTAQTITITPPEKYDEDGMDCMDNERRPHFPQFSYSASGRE
Summary of the method: as §1

[17] = molecular target: T3, AKT3; experiment: Immunoblotting, AKT3 protein level in other tumor cells (H1975, PC-9, H1299, A549); set-up: analyzed the protein levels of AKT1/2/3 using immunoblotting method as described in Embodiment 105; endogenous in cells; host or cells: H1975, PC-9, H1299, A549; conditions: H1975, PC-9, H1299 and A549 cells, different concentrations, 24 hours
Description: as §2, §3

[18] = system: A549; experiment: CCK-8 tumor cell proliferation, A549; conditions: Homo sapiens, A549 cells, 72 hours
Description: as §5

[19] = system: HCT116; experiment: CCK-8 tumor cell proliferation, HCT116; conditions: Homo sapiens, HCT-116, HCT116 cells, 72 hours
Description: as §5

[20] = system: K562; experiment: CCK-8 tumor cell proliferation, K562; conditions: Homo sapiens, K562 cells, 72 hours
Description: as §5

[21] = system: MIAPACA-2; experiment: CCK-8 tumor cell proliferation, MIAPACA-2; conditions: Homo sapiens, MIA PaCa-2, MIAPACA-2 cells, 72 hours
Description: as §5

[22] = system: PANC-1; experiment: CCK-8 tumor cell proliferation, PANC-1; conditions: Homo sapiens, PANC-1 cells, 72 hours
Description: as §5

[23] = system: BXPC-3; experiment: CCK-8 tumor cell proliferation, BXPC-3; conditions: Homo sapiens, BXPC-3 cells, 72 hours
Description: as §5

| IC50 [10] [µM] | IC50 [11] [µM] | IC50 [12] [µM] | IC50 [13] [µM] | IC50 [14] [µM] | IC50 [15] [µM] | IC50 [18] [µM] | IC50 [19] [µM] | IC50 [20] [µM] | IC50 [21] [µM] | IC50 [22] [µM] | IC50 [23] [µM] | SMILES | further results |
| --- | --- | --- | --- | --- | --- | --- | --- | --- | --- | --- | --- | --- | --- |
| 0.0294 | > 10 | > 10 | > 10 | 0.686 | > 10 | – | – | – | – | – | – | COc1cc(N2CCN(CCCCCCCCCCCCNC(=O)CC34CC5CC(CC(C5)C3)C4)CC2)ccc1Nc1ncc2c(C)cc(=O)n(-c3cccc(NC(=O)C4CC4)c3)c2n1 [ZX-HYT-11, N-(3-(2-((4-(4-(12-(2-(((3R, 5R, 7R)-adamantan-1-yl)acetylamino)dodecyl)piperazin-1-yl)-2-methoxyphenyl)amino)-5-methyl-7-oxypyridino [2,3-d]pyrimidin-8 (7H)-yl)phenyl)cyclopropane formamide] | Dmax at 1 µM [1]: 0%; Dmax at 1 µM [2]: 15.3%; effect on AKT1/2 protein levels [3]: without affecting AKT1/2; IC50 [4]: 2.39 ± 2 µM; IC50 [5]: 0.007 ± 0.0006 µM; IC50 [6]: 0.0839 ± 0.0135 µM; IC50 [7]: 0.0093 ± 0.0004 µM; IC50 [8]: 0.0932 ± 0.014 µM; IC50 [9]: 0.27 ± 0.0723 µM; Dmax at 1 µM [16]: 91.1%; degradation of AKT3 protein [17]: could selectively degrade AKT3 protein |
| 0.145 | > 10 | 0.644 | > 3 | > 10 | > 10 | 0.629 | 0.0553 | 0.263 | 0.0513 | 0.125 | 0.333 | COc1cc(N2CCN(CCNC(=O)CC34CC5CC(CC(C5)C3)C4)CC2)ccc1Nc1ncc2c(C)cc(=O)n(-c3cccc(NC(=O)C4CC4)c3)c2n1 [ZX-HYT-51, N-(3-(2-((4-(4-(2-(2-((3R, 5R, 7R)-adamantan-1-yl)acetylamino)ethyl)piperazin-1-yl)-2-methoxyphenyl))amino)-5-methyl-7-oxypyridino [2,3-d]pyrimidin-8 (7H)-yl) phenyl) cyclopropane formamide] | – |
| 1.99 | 2.5 | 0.478 | 0.568 | 1.35 | 0.002 to 0.005 | 0.833 | 0.104 | 0.25 | 0.0721 | 0.126 | 0.303 | COc1cc(N2CCN(CCCCNC(=O)CC34CC5CC(CC(C5)C3)C4)CC2)ccc1Nc1ncc2c(C)cc(=O)n(-c3cccc(NC(=O)C4CC4)c3)c2n1 [ZX-HYT-52, N-(3-(2-((4-(4-(4-(2-((3R, 5R, 7R)-adamantan-1-yl)acetylamino)butyl)piperazin-1-yl)-2-methoxyphenyl))amino)-5-methyl-7-oxypyridino [2,3-d]pyrimidin-8 (7H)-yl) phenyl) cyclopropane formamide] | – |
| 0.104 | > 10 | > 10 | > 10 | 0.335 | > 10 | 1.17 | 0.0729 | 0.234 | 0.0511 | 0.179 | 0.447 | COc1cc(N2CCN(C(=O)C34CC5CC(CC(C5)C3)C4)CC2)ccc1Nc1ncc2c(C)cc(=O)n(-c3cccc(NC(=O)C4CC4)c3)c2n1 [ZX-HYT-65, N-(3-(2-((4-(4-((3R, 5R, 7R)-adamantan-1-carbonyl)piperazin-1-yl)-2-methoxyphenyl)amino)-5-methyl-7-oxypyridino [2,3-d]pyrimidin-8 (7H)-yl)phenyl) cyclopropane formamide] | – |
